# Source: patent US8163793B2, “Proline derivatives” (Hoffman-La Roche Inc., priority 2009, dated 2012)
# Columns and labels:
# Cathepsin S = Cathepsin S (UniProt P25774); test: Cathepsin enzyme inhibition assay (fluorogenic peptide substrate Z-Val-Val-Arg-AMC), Cathepsin S; format: biochemical, human and mouse; settings: enzyme 1 nM, substrate 20 μM, pH 6.5; read-out: CatS IC50
# Procedure, shortened: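 Compounds were combined with 1 nM human or mouse enzyme, and substrate then started the reaction. The buffer was potassium phosphate (100 mM, pH 6.5) containing EDTA-Na 5 mM, Triton X-100 0.001% and […] 5 mM.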
# Cat L = Cat L (UniProt P07711); test: Cathepsin enzyme inhibition assay (fluorogenic peptide substrate Z-Val-Val-Arg-AMC), Cathepsin L; format: biochemical, human and mouse; settings: enzyme 1 nM, substrate 20 μM, pH 6.5; read-out: CatL IC50
# Procedure, shortened: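 Fluorogenic cleavage of Z-Val-Val-Arg-AMC (20 μM) by 1 nM Cat L was monitored at ex 360/em 465 nm for 20 min, the linear phase. The buffer was 100 mM potassium phosphate pH 6.5 with 5 mM EDTA and DTT. IC50 values were derived by standard methods, in μM.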
Structure (SMILES),IC50 (Cathepsin S) [nM],IC50 (Cat L) [µM]
"N#CCNC(=O)[C@@H]1C[C@@H](S(=O)(=O)c2ccccc2C(F)(F)F)CN1C(=O)OC1CCCC1 [Example 72, (2S,4R)-2-(Cyanomethyl-carbamoyl)-4-(2-trifluoromethyl-benzenesulfonyl)-pyrrolidine-1-carboxylic acid Cyclopentyl Ester]",0.8,≥ 25
"N#CC1(NC(=O)[C@@H]2C[C@@H](S(=O)(=O)c3ccccc3)CN2C(=O)c2ccccc2)CC1 [Example 73, (2S,4R)-4-Benzenesulfonyl-1-benzoyl-pyrrolidine-2-carboxylic acid (1-cyano-cyclopropyl)-amide]",12.7,≥ 25
"N#CC1(NC(=O)[C@@H]2C[C@@H](S(=O)(=O)c3ccccc3)CN2C(=O)C2CCOCC2)CC1 [Example 74, (2S,4R)-4-Benzenesulfonyl-1-(tetrahydro-pyran-4-carbonyl)-pyrrolidine-2-carboxylic acid (1-cyano-cyclopropyl)-amide]",6.6,≥ 25
"N#CC1(NC(=O)[C@@H]2C[C@@H](S(=O)(=O)c3ccccc3Cl)CN2C(=O)c2ccccc2)CC1 [Example 75, (2S,4R)-1-Benzoyl-4-(2-chloro-benzenesulfonyl)-pyrrolidine-2-carboxylic acid (1-cyano-cyclopropyl)-amide]",0.8,6.79
"N#CC1(NC(=O)[C@@H]2C[C@@H](S(=O)(=O)c3ccccc3Cl)CN2C(=O)c2ccc(F)cc2)CC1 [Example 76, (2S,4R)-4-(2-Chloro-benzenesulfonyl)-1-(4-fluoro-benzoyl)-pyrrolidine-2-carboxylic acid (1-cyano-cyclopropyl)-amide]",1.4,8.8
"N#CC1(NC(=O)[C@@H]2C[C@@H](S(=O)(=O)c3ccccc3Cl)CN2C(=O)C2CCCCC2)CC1 [Example 77, (2S,4R)-4-(2-Chloro-benzenesulfonyl)-1-cyclohexanecarbonyl-pyrrolidine-2-carboxylic acid (1-cyano-cyclopropyl)-amide]",0.2,8.25
"N#CC1(NC(=O)[C@@H]2C[C@@H](S(=O)(=O)c3ccccc3Cl)CN2C=O)CC1 [Example 78, (2S,4R)-4-(2-Chloro-benzenesulfonyl)-1-formyl-pyrrolidine-2-carboxylic acid (1-cyano-cyclopropyl)-amide]",18.5,≥ 25
"CC(=O)N1C[C@H](S(=O)(=O)c2ccccc2Cl)C[C@H]1C(=O)NC1(C#N)CC1 [Example 79, (2S,4R)-1-Acetyl-4-(2-chloro-benzenesulfonyl)-pyrrolidine-2-carboxylic acid (1-cyano-cyclopropyl)-amide]",1.4,29.7
"N#CC1(NC(=O)[C@@H]2C[C@@H](S(=O)(=O)c3ccccc3Cl)CN2C(=O)C(F)(F)F)CC1 [Example 80, (2S,4R)-4-(2-Chloro-benzenesulfonyl)-1-(2,2,2-trifluoro-acetyl)-pyrrolidine-2-carboxylic acid (1-cyano-cyclopropyl)-amide]",0.8,9.77
"CN1CCC[C@H]1C(=O)N1C[C@H](S(=O)(=O)c2ccccc2Cl)C[C@H]1C(=O)NC1(C#N)CC1 [Example 81, (R)-4-(2-Chloro-benzenesulfonyl)-1-((S)-1-methyl-pyrrolidine-2-carbonyl)-pyrrolidine-2-carboxylic acid (1-cyano-cyclopropyl)-amide formiate]",3.2,6.03
"CN1CCC(C(=O)N2C[C@H](S(=O)(=O)c3ccccc3Cl)C[C@H]2C(=O)NC2(C#N)CC2)CC1 [Example 82, (2S,4R)-4-(2-Chloro-benzenesulfonyl)-1-(1-methyl-piperidine-4-carbonyl)-pyrrolidine-2-carboxylic acid (1-cyano-cyclopropyl)-amide]",8.7,6.8
"CCN1C[C@H](S(=O)(=O)c2ccccc2Cl)C[C@H]1C(=O)NC1(C#N)CC1 [Example 83, (2S,4R)-4-(2-Chloro-benzenesulfonyl)-1-ethyl-pyrrolidine-2-carboxylic acid (1-cyano-cyclopropyl)-amide]",30.5,62.1
"N#CC1(NC(=O)[C@@H]2C[C@@H](S(=O)(=O)c3ccccc3Cl)CN2C2CCC2)CC1 [Example 84, (2S,4R)-4-(2-Chloro-benzenesulfonyl)-1-cyclobutyl-pyrrolidine-2-carboxylic acid (1-cyano-cyclopropyl)-amide]",55,≥ 25
"N#CC1(NC(=O)[C@@H]2C[C@@H](S(=O)(=O)c3ccccc3Cl)CN2C2CCCCC2)CC1 [Example 85, (2S,4R)-4-(2-Chloro-benzenesulfonyl)-1-cyclohexyl-pyrrolidine-2-carboxylic acid (1-cyano-cyclopropyl)-amide]",9.4,≥ 25
"N#CC1(NC(=O)[C@@H]2C[C@@H](S(=O)(=O)c3ccccc3Cl)CN2Cc2ccncc2)CC1 [Example 86, (2S,4R)-4-(2-Chloro-benzenesulfonyl)-1-pyridin-4-ylmethyl-pyrrolidine-2-carboxylic acid (1-cyano-cyclopropyl)-amide]",23,14.6
"N#CC1(NC(=O)[C@@H]2C[C@@H](S(=O)(=O)c3ccccc3Cl)CN2CCc2ccccc2)CC1 [Example 87, (2S,4R)-4-(2-Chloro-benzenesulfonyl)-1-phenethyl-pyrrolidine-2-carboxylic acid (1-cyano-cyclopropyl)-amide]",37.5,4.72
"N#CC1(NC(=O)[C@@H]2C[C@@H](S(=O)(=O)c3ccccc3Cl)CN2CC(F)F)CC1 [Example 88, (2S,4R)-4-(2-Chloro-benzenesulfonyl)-1-(2,2-difluoro-ethyl)-pyrrolidine-2-carboxylic acid (1-cyano-cyclopropyl)-amide]",275,≥ 25
"N#CC1(NC(=O)[C@@H]2C[C@@H](S(=O)(=O)c3ccccc3Cl)CN2CC(F)(F)F)CC1 [Example 89, (2S,4R)-4-(2-Chloro-benzenesulfonyl)-1-(2,2,2-trifluoro-ethyl)-pyrrolidine-2-carboxylic acid (1-cyano-cyclopropyl)-amide]",110,≥ 25
"CC(CN1C[C@H](S(=O)(=O)c2ccccc2Cl)C[C@H]1C(=O)NC1(C#N)CC1)C(F)(F)F (stereo partly drawn) [Example 90, (2S,4R)-4-(2-Chloro-benzenesulfonyl)-1-(3,3,3-trifluoro-2-methyl-propyl)-pyrrolidine-2-carboxylic acid (1-cyano-cyclopropyl)-amide]",84.5,≥ 25
"N#CC1(NC(=O)[C@@H]2C[C@@H](S(=O)(=O)c3ccccc3Cl)CN2CCC(F)(F)F)CC1 [Example 91, (2S,4R)-4-(2-Chloro-benzenesulfonyl)-1-(3,3,3-trifluoro-propyl)-pyrrolidine-2-carboxylic acid (1-cyano-cyclopropyl)-amide]",120,≥ 25
"N#CC1(NC(=O)[C@@H]2C[C@@H](S(=O)(=O)c3ccccc3Cl)CN2CC(F)(F)C(F)(F)F)CC1 [Example 92, (2S,4R)-4-(2-Chloro-benzenesulfonyl)-1-(2,2,3,3,3-pentafluoro-propyl)-pyrrolidine-2-carboxylic acid (1-cyano-cyclopropyl)-amide]",41,61.7
